The record followed here is ChEMBL document CHEMBL4837236, “Polyketides with Anti-neuroinflammatory Activity from Theissenia cinerea” (J Nat Prod, 2021).

Data set [1] relates to BV-2. The experiment in a line: Cytotoxicity against mouse BV2 cells assessed as cell viability at 10 uM after 24 hrs by MTT assay. In kind it is cell-based. Particulars: bv-2, 24 h.
Data set [2] deals with BV-2. The experiment in a line: Antiinflammatory activity in mouse BV2 cells assessed as inhibition of LPS-induced NO-production by measuring NO level at 10 uM preincubated for 1 hr followed by LPS stimulation and measured after 24 hrs by microplate reader based colorimetric assay (reference value: 26.6 +/- 8.1 uM). In kind it is functional.
Data set [3] relates to BV-2. The experiment in a line: Antiinflammatory activity in mouse BV2 cells assessed as inhibition of LPS-induced NO-production preincubated for 1 hr followed by LPS stimulation and measured after 24 hrs by microplate reader based colorimetric assay. Particulars: for inhibition: time 25.0 hrs. Type of data set: functional, cell-based.

Regarding `COc1cc(O)c2c(c1)[C@H](O)[C@]13CO[C@H](O)[C@]1(O3)C2=O`, the Activity result in the data set on BV-2 [1] is “Non-Toxic”. The NO level in the data set on BV-2 [2] was found to be 2.6 µM. For the same molecule, in the data set with BV-2 [3], the concentration for half-maximal inhibition (IC50) was 3.2 µM and the inhibition entry is “Dose-Dependent Effect”.

As for `C/C=C/[C@@H]1O[C@H]2C(=C[C@H]1O)C(=O)O[C@@H]2C`, in the data set with BV-2 [1], the Activity entry was “Non-Toxic”. Further, the NO level in the data set on BV-2 [2] turned out to be 1.9 µM. For the same molecule, the IC50 with BV-2 [3] turned out to be 1.1 µM.

As to `COc1cc(O)c2c(c1)[C@H](O)[C@@]1(CO)O[C@@]1(CO)C2=O`, in the data set with BV-2 [1], the Activity entry is on record as “Non-Toxic”. For the same molecule, in the data set with BV-2 [2], the NO level worked out at 10.5 µM. Further, in the data set with BV-2 [3], the IC50 was found to be 5 µM and the inhibition entry was “Dose-Dependent Effect”.

On to `C/C=C/[C@H]1O[C@@H]2C(=C[C@H]1O)C(=O)O[C@@H]2C`, for which the Activity result in the data set on BV-2 [1] is “Non-Toxic”. In addition, the NO level in the data set with BV-2 [2] worked out at 2.2 µM. In addition, the concentration for half-maximal inhibition (IC50) in the data set on BV-2 [3] was 4.5 µM.

`CC(O)C/C=C/[C@H](O)[C@H](O)/C=C/c1cccc(O)c1CO` (some centres undefined): the Activity result in the data set with BV-2 [1] is given as “Non-Toxic”. The NO level in the data set with BV-2 [2] was found to be 26.6 µM.

On to `C[C@@H]1OC(=O)c2c(O)ccc(O)c2[C@@H]1O`, for which the Activity entry with BV-2 [1] is listed as “Non-Toxic”. The NO level in the data set on BV-2 [2] stood at 28.9 µM.

For the molecule `COc1cc(/C=C/C(=O)CC(=O)/C=C/c2ccc(O)c(OC)c2)ccc1O` [CURCUMIN], the NO level with BV-2 [2] turned out to be 5.5 µM. Moreover, the IC50 in the data set on BV-2 [3] worked out at 3 µM.

For `C/C=C/[C@@H]1O[C@@H]2[C@@H](C)OC(=O)[C@]2(O)C[C@H]1O`, the Activity entry in the data set with BV-2 [1] is recorded as “Non-Toxic”. The NO level with BV-2 [2] was 25.5 µM.

Regarding `CCC/C=C/C1=C(CO)[C@@H](O)[C@@H]2O[C@@H]2[C@@H]1O`, the Activity entry with BV-2 [1] is “Non-Toxic”. For the same molecule, in the data set with BV-2 [2], the NO level is 24.3 µM.
